Experimental data published in patent publication US20060194814A1, “Benzamide compounds” (priority 2003, published 2006).
Where a name gives a salt, the structure may show the parent alone.

What was measured:
[1] = test system: steroidogenesis acute regulatory protein (StAR); assay: Immunoblot of StAR protein in Y1 cells; assay type: cell-based, mouse; conditions: 1 μM procaine, 48 hour treatment
Method: At the end of the treatment protocol described above, Y1 cells at 90% confluency were washed 2 times with PBS, sonicated 15 seconds in extraction buffer and centrifuged at 18,500 g for 15 minutes at 4° C. Pellets were resuspended in ice-cold lysis buffer (1% Nonidet 40 in extraction buffer), sonicated briefly, and incubated on ice for 1 hour. After centrifugation (22,500 g×30 min, 4° C.), the supernatant was mixed in sample buffer 6× (0.27 M SDS, 0.6 M dithiothreitol, 0.18 M bromphenol blue in 7 ml of 0.5 M Tris-HCl, pH 6.8, and 3 ml glycerol) and boiled for 5 minutes. Proteins were subjected to SDS-PAGE (4-20% gradient SDS polyacrylamide gel) and electrophoretically transferred onto nitrocellulose membranes. The transblot sheets were blocked with 5% non fat dry milk in 25 mM Tris HCl, pH 7.5, 150 mM NaCl, and 0.1% Tween 20 overnight at 4° C. Membranes were then incubated with appropriately diluted primary antibodies 1:800 for anti-P-450scc (Research Diagnostics Inc. Flanders, N.J.) and 1:200 for anti-StAR (Amri et al., 1996), and the reaction was detected by a peroxidase-conjugated secondary antibody (Santa Cruz Biotechnology, Santa Cruz, Calif.) and enhanced chemiluminescence (Amersham Life, Arlington Heights, Ill.). The densities of the appropriate bands were determined using the OptiQuant Acquisition & Analysis software (Packard BioScience).

[2] = test system: H295R human adrenal tumor cells; assay: dbcAMP-induced cortisol synthesis in H295R cells; assay type: cell-based
Method: Culture media were then changed and cells were stimulated with 1 mM dbcAMP and the treatment for 24 to 48 hours. […] The synthesis of 20 —OH progesterone and progesterone in Y1 and MA-10 cell media respectively were measured by RIA (Brown et al., 1992). H295R human adrenal tumor cells were seeded in 48-well plates at 10^5 cells/well and incubated for 24 hours. […] At the end of the incubation time period, cells were treated with 1 mM dbcAMP for 48 hours. Cortisol levels in the media were determined by radioimmunoassay as previously described (Amri et al., 1996).

Question: How did the “effect on levels of the mature 30 kDa StAR protein” value [1] turn out when `CCN(CC)CCOC(=O)c1ccc(N)cc1` [SP01, procaine HCl] was run?
Answer: did not affect

Question: And the “effect on dbcAMP-stimulated cortisol production” value [2]?
Answer: inhibited the dbcAMP-stimulated cortisol production in a dose-dependent manner

Question: And the “effect on basal cortisol production” value ([2]; basal)?
Answer: without effecting basal cortisol production
